Measured values from paper PMC4623604, “Discovery of Small Molecules that Inhibit the Disordered Protein, p27^Kip1” (Scientific Reports, 2015).
Values belong to the compound of their own block, whether it stands above or below them.

Experiments:
[1] = molecular target: T1, p27-KID (Homo sapiens, UniProt P46527); assay: NMR 2D 1H-15N in-phase HSQC titration, binding affinity for p27:small molecule interactions; conditions: sixteen-point titration, 100 μM 15N-p27-KID, inhibitor 0-3 mM
T1 construct: 6xHis (N, cleaved yes); made in house; host or cells: E. coli (pET28a)
Procedure: 1D and 2D NMR analysis of these molecules led to the identification of 15 additional p27-D2-binding compounds (six with Group 1-like binding features and nine with Group 2-like features; Suppl. Fig. 3b and Suppl. Table 1b).
Sixteen point titrations of representative fragment hits from Group 1 and Group 2 (SJ572710 and SJ572403, respectively) into ^15N-p27-KID (100 μM) were recorded using an adopted “in-phase” 2D ^1H-^15N HISQC with proton decoupling during ^15N chemical shift labeling achieved with a WALTZ16 composite pulse with an amplitude of 7.1 kHz[54][55]. All experiments were collected at a Bruker Avance 800 MHz spectrometer equipped with TCI cryogenic gradient probe. The following molar ratios of ^15N-p27-KID (100 μM) to inhibitor were used: 1:0, 1:0.1, 1:1.5, 1:3, 1:4.5, 1:6, 1:7.5, 1:9, 1:10.5, 1:12, 1:15, 1:18, 1:21, 1:24, 1:27 and 1:30. Each spectrum was recorded with 256 (t1,max = 31.0 ms) and 1024 (t2,max = 106.5 ms) complex points in the ^15N and ^1H dimensions, respectively, with eight transients collected per point. The spectral resolution of the ^1H and ^15N dimensions was 2.4 and 1.7 Hz, respectively. […] The data was processed using the NMRPipe package[56] and analyzed using in-house scripts written in Python using the Scipy computing libraries and Mathematica (Wolfram Research). […]

[2] = molecular target: T1, p27-KID; assay: NMR fragment screening and 2D 1H-15N HSQC chemical shift perturbation mapping; format: binding; parameters: key to Binding Group (site of chemical shift perturbations in p27-KID): Molecules in Group 1 bound to a localized region, F87YY89; molecules in Group 2 bound to this region as well as two others containing two W residues (W60 and W76); conditions: 100 μM 15N-p27-KID; for chemical shift perturbations in 2D HSQC spectra of p27-KID: titrated to 30-fold molar excess (3 mM)
Source text: We used one-dimensional (1D) ^1H WaterLOGSY[35] and STD[36] […] Fragment molecules were selected from either a commercial library (1,100 compounds from the Ro3 collection, Maybridge/Thermo Fisher Scientific) or an in-house library of 1,222 compounds based on the “Rule of Three”[40] and other criteria (see Methods). […] Binding sites for these compounds were identified by titration into ^15N-p27-KID and analysis of two-dimensional (2D) ^1H-^15N HSQC spectra. […] We termed these molecules Groups 1 and 2, respectively (Fig. 1b,c); representative ^1H CSP histograms are shown in Fig. 1d,e, and ^15N CSPs are presented in Suppl. Fig. 2. Data for all other small molecules are shown in Suppl. Fig. 3.
Screening and validation NMR experiments were performed at 298 K (25 °C) using either a Varian Inova 600 MHz spectrometer equipped with a triple resonance (HCN) room temperature gradient probe or a Bruker Avance 600 MHz spectrometer equipped with TCI cryogenic gradient probe and a SampleJet sample changer. Fragment molecules were initially analyzed as pools of five molecules dissolved at 10 mM each in DMSO-D6. […] For initial fragment screening experiments, one-dimensional (1D) ^1H- and WaterLOGSY[35] NMR spectra were recorded for compound pools without and with protein. […] DMSO-D6 was added to maintain a constant concentration (2% vol/vol). […] Tryptophan and tyrosine, respectively, were titrated into ^15N-p27-KID (100 μM) up to 3 mM. Three-dimensional (3D) backbone triple-resonance experiments to establish resonance assignments for the p27 constructs were performed using the Bruker Avance 600 MHz spectrometer. […] Fig. 12b,c and d,e, respectively. 2D ^1H-^15N TROSY-HSQC NMR experiments with ^2H/^13C/^15N-p27-D2/Cdk2/cyclin A and SJ403 have been recorded at 308 K (35 °C). 2D ^1H-^15N HSQC experiments of representative fragment hits (1 mM of SJ319843, group 1 and SJ403, group 2, respectively) with ^15N-p21-KID (20 μM) were recorded at 298 K using a Bruker Avance 600 MHz spectrometer. NMR spectra were processed using Bruker Topspin software and analyzed using computer-aided resonance assignment (CARA) software.
Chemical shift perturbations are generally quantified as combined ^1H and ^15N chemical shift values. […] Thus, the use of a combined chemical shift values would mask the effects of compound binding. […] Thus, the assessment of statistical significance was based upon whether a particular CSP value was larger than, i) the experimental spectral resolution in the given dimension (^1H or ^15N) and ii) the quantity, Δδave + 2σ, for that dimension.

[3] = molecular target: T2, Cdk2/cyclin A (Homo sapiens, UniProt P24941); assay: Fluorescence anisotropy analysis of Cdk2/cyclin A binding to p27-D2-FL; conditions: Alexa Fluor 488 labeled p27-D2
T2 construct: Full length human Cdk2, active Cdk2 (phosphorylated at threonine 160); truncated human cyclin A (residues 173–432); made in house
Procedure: Figure 4 Fluorescence anisotropy analysis of displacement of p27-D2-FL from Cdk2/cyclin A by SJ403. (a) Fluorescence anisotropy analysis of Cdk2/cyclin A binding to p27-D2-FL. The starting condition (20 nM p27-D2-FL, 300 nM Cdk2/cyclin A) for assessing the effect of fragment hit SJ403 on p27 function is represented as the red circle on the binding isotherm. (b) Titration of SJ403 (0–3 mM) caused the displacement of p27-D2 from Cdk2/cyclin A, resulting in a decrease in fluorescence anisotropy values. Experiments were performed in triplicate and average values and the standard deviations of the means are shown.
The p27-D2-C99S-R93C mutant was conjugated with Alexa Fluor488-C5-Maleimide (Life Technologies, p27-D2-FL) in buffer containing 20 mM Na phosphate, pH7.3, 20 mM NaCl according to the manufacturer’s protocol. The conjugated protein was further purified by reverse-phase high performance liquid chromatography (HPLC) using a C4 column (Vydac) and 0.1% trifluoroacetic acid-containing water/acetonitrile solvent system. […] Fluorescence anisotropy measurements were performed at 25 °C on a Horiba Fluorolog 3 spectrofluorometer. […] All samples have been incubated overnight in the dark at 4 °C prior to fluorescence measurements. Fluorescence anisotropy binding data was analyzed using KaleidaGraph. […]

[4] = molecular target: T2, Cdk2/cyclin A; assay: Cdk2/cyclin A kinase activity assay (Histone H1 substrate); format: biochemical
Procedure: Cdk2/Cyclin A (200 pM) was mixed with Histone H1 (15 μM; EMD Millipore), p27-D2 (200 nM) and varied amounts of lyophilized SJ403 and incubated overnight at 4 °C. The effect of the SJ403 compound on Cdk2 activity was determined by performing similar experiments in the absence of p27-D2. Subsequently, ATP (50 μM total concentration, of which 6 μCi γ ^32P-ATP (PerkinElmer, Inc)) was added to each reaction and further incubated for 35 minutes at 30 °C. […] The sample buffer contained 20 mM HEPES pH 7.3, 25 mM sodium β-glycerolphosphate, 15 mM MgCl2, 16 mM EGTA, 0.5 mM Na3VO4 and 10 mM DTT. The reactions were quenched by addition of SDS-gel loading buffer (5 μL) and then analyzed by SDS-PAGE (10 μL). The gels were dried at 70 °C under vacuum and a phosphoimager (GE Healthcare, Piscataway, NJ) was used to quantify the ^32P-Histone H1 bands. IC50 values were determined by curve fitting using KaleidaGraph software. Experiments were performed in triplicate and mean IC50 and standard deviations of the mean values are reported.

T1 sequence (P46527 22-105): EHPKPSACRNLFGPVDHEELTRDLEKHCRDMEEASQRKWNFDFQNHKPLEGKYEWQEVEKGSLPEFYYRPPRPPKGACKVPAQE

Kd [1]: 4800 ± 1300 µM
Binding Group (site of chemical shift perturbations in p27-KID) ([2]; 2D 1H-15N HSQC): Group 1
Compound: O=c1oc2cc(OCCO)ccc2c2c1CCCC2 [SJ710]

Compound: N[C@@H](Cc1c[nH]c2ccccc12)C(=O)O [tryptophan, reference compound]
chemical shift perturbations in 2D HSQC spectra of p27-KID [2]: neither aromatic amino acid cause chemical shift perturbations

Compound: N[C@@H](Cc1ccc(O)cc1)C(=O)O [tyrosine, reference compound]
chemical shift perturbations in 2D HSQC spectra of p27-KID [2]: neither aromatic amino acid cause chemical shift perturbations

Kd [3]: 0.073 ± 0.008 µM
IC50 ([4]; 200 pM Cdk2/cyclin A, Histone H1 substrate, read-out: IC50, inhibition of Cdk2/cyclin A): 0.152 ± 0.039 µM
Compound: p27-D2: D2 sub-domain of p27, residues 58-105 of human p27 (RKWNFDFQNHKPLEGKYEWQEVEKGSLPEFYYRPPRPPKGACKVPAQE; UniProt P46527 58-105, looked up, fragment)
Cdk2 kinase activity maintained (of full kinase activity) ([4]; 200 nM p27-D2, 200 pM Cdk2/cyclin A, before SJ403): ~ 13%
